≈ marks a conversion by molar mass, not a printed value.
Tests used:
Assay type in all cases: physicochemical
[1] = Conductivities of polymers and nanocomposites in solution (Acorn TDS 5 Meter); details: solvent as given in the compound name
Method: In order to characterize […] and related compounds, several methods were utilized. First, the DC SQUID (Superconducting Quantum Interference Device) magnetometer was used to measure magnetization of solid […] after 3 weeks and the […] base (control). Absorbance checks using spectrophotometer were performed on […] in solution. Conductivities in solution of […] were gauged by Acorn® TDS 5 Meter. […] To create β-carotene nanocomposites, the use of an appropriate solvent was crucial. […] Solutions of β-carotene nanocomposites were characterized by absorbance checks and conductivity measurements. […] Mixtures of β-carotene […] various other PANi-derived polymers are attained forming a variety of other composites.

[2] = Solubility of β-carotene in kwik-dri; details: crudely determined
Method: (§1) β-carotene nanocomposites: To create β-carotene nanocomposites, the use of an appropriate solvent was crucial. Acetone, toluene, kwik-dri, and tetrahydrofuran (THF) were tested. The solubility of β-carotene in kwik-dri, a non-aromatic industrial solvent similar to toluene, was crudely determined. Solutions of β-carotene nanocomposites were characterized by absorbance checks and conductivity measurements. […] Mixtures of β-carotene with PANi emeraldine salt and various other PANi-derived polymers are attained forming a variety of other composites.

[3] = Degradability of β-carotene in toluene by absorbance over time; details: absorbance graphs over several days
Method: as §1

Conductivity [1]: ~0 μS
Conductivity ([1]; listed as Kwik-dri + β-carotene): 0.15 μS
Conductivity ([1]; listed as THF + β-carotene): ~0 μS
Solubility [2]: 500 mg/L (≈ 931 µM)
Compound: CC1=C(/C=C/C(C)=C/C=C/C(C)=C/C=C/C=C(C)/C=C/C=C(C)/C=C/C2=C(C)CCCC2(C)C)C(C)(C)CCC1 [β-carotene]
Degradability [3]: degradability in toluene was demonstrated

— patent US7468150B2, “Synthesis of conducto-magnetic polymers as nano-transducers in biosensor design” (Board of Trustees of Michigan State University, priority 2005, dated 2008)
